# What was measured:
# Test in all cases: normalised response (% of control), CellTiter-Glo; higher = more viable cells (100 = DMSO, 0 = benzethonium chloride kill control)
# Settings in all cases: incubation time: 72 h
# MDA-MB-436 = system: MDA-MB-436
# Experimental: (§1)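 DSRT, 72 h incubation, CellTox Green / CellTiter-Glo readout. Signal is normalised to DMSO and benzethonium chloride controls. Value is the normalised response at the highest dose.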
# Hs578T = system: Hs578T
# Experimental: as §1
# HCC1599 = system: HCC1599
# Experimental: as §1
# DU-4475 = system: DU-4475
# Experimental: as §1
# CAL-51 [1] = system: CAL-51
# Experimental: as §1
# CAL-85-1 [2] = system: CAL-85-1
# Experimental: as §1
# SK-BR-3 [3] = system: SK-BR-3
# Experimental: as §1
# MDA-MB-468 = system: MDA-MB-468
# Experimental: as §1
# BT-549 = system: BT-549
# Experimental: as §1
# HDQ-P1 = system: HDQ-P1
# Experimental: as §1
# CAL-120 [4] = system: CAL-120
# Experimental: as §1
# HCC1937 = system: HCC1937
# Experimental: as §1
# CAL-148 = system: CAL-148
# Experimental: as §1
# HCC1143 [5] = system: HCC1143
# Experimental: as §1
# BT-474 = system: BT-474
# Experimental: as §1
# MDA-MB-231 [6] = system: MDA-MB-231
# Experimental: as §1
# MCF-10A [7] = system: MCF-10A
# Experimental: as §1
# MFM-223 [8] = system: MFM-223
# Experimental: as §1
# MDA-MB-453 [9] = system: MDA-MB-453
# Experimental: as §1
# CAL-51 [10] = system: CAL-51; remark: listed apart in the source
# In short: (§2)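 Breast cancer cell lines were exposed for 72 h in 384-well plates to compound at 5 concentrations, 10-fold apart, covering a 10,000-fold range fixed for each compound. Plates were read for CellTox Green fluorescence and CellTiter-Glo luminescence and normalised to 0.1 % DMSO (100) and a positive kill control (0). Each value is the normalised signal at one concentration of the series.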
# CAL-85-1 [11] = system: CAL-85-1; remark: listed apart in the source
# In short: as §2
# SK-BR-3 [12] = system: SK-BR-3; remark: listed apart in the source
# In short: as §2
# CAL-120 [13] = system: CAL-120; remark: listed apart in the source
# In short: as §2
# HCC1143 [14] = system: HCC1143; remark: listed apart in the source
# In short: as §2
# MDA-MB-231 [15] = system: MDA-MB-231; remark: listed apart in the source
# In short: as §2
# MCF-10A [16] = system: MCF-10A; remark: listed apart in the source
# In short: as §2
# MFM-223 [17] = system: MFM-223; remark: listed apart in the source
# In short: as §2
# MDA-MB-453 [18] = system: MDA-MB-453; remark: listed apart in the source
# In short: as §2
Structure (SMILES),normalised response (MDA-MB-436),normalised response (Hs578T),normalised response (HCC1599),normalised response (DU-4475),normalised response (CAL-51 [1]),normalised response (CAL-85-1 [2]),normalised response (SK-BR-3 [3]),normalised response (MDA-MB-468),normalised response (BT-549),normalised response (HDQ-P1),normalised response (CAL-120 [4]),normalised response (HCC1937),normalised response (CAL-148),normalised response (HCC1143 [5]),normalised response (BT-474),normalised response (MDA-MB-231 [6]),normalised response (MCF-10A [7]),normalised response (MFM-223 [8]),normalised response (MDA-MB-453 [9]),normalised response (CAL-51 [10]),normalised response (CAL-85-1 [11]),normalised response (SK-BR-3 [12]),normalised response (CAL-120 [13]),normalised response (HCC1143 [14]),normalised response (MDA-MB-231 [15]),normalised response (MCF-10A [16]),normalised response (MFM-223 [17]),normalised response (MDA-MB-453 [18])
CN1CCC(COc2cnc(-c3cccc(Cn4nc(-c5cccc(C#N)c5)ccc4=O)c3)nc2)CC1 (1000 nM),84.4%,95.2%,85.6%,101%,110%,99.8%,81%,90.3%,91.9%,99.6%,96.1%,84%,94.5%,97.8%,93.3%,104%,89.3%,84.9%,84%,,,,,,,,,
CN(C)C/C=C/C(=O)Nc1cc2c(Nc3ccc(F)c(Cl)c3)ncnc2cc1O[C@H]1CCOC1 [Afatinib] (1000 nM),98%,94.5%,108%,100%,96.4%,61.7%,24.8%,66.8%,89.1%,64.3%,93.5%,89.8%,78.6%,97.2%,80.2%,83.4%,35.1%,93%,63.3%,,,,,,,,,
CN1CC[C@H](c2c(O)cc(O)c3c(=O)cc(-c4ccccc4Cl)oc23)[C@H](O)C1 [Alvocidib] (1000 nM),,,,,,,,,,,,,,,,,,,,9.5%,8.63%,2.44%,35.2%,17.1%,3.01%,11.2%,14%,28%
CN1CC[C@H](c2c(O)cc(O)c3c(=O)cc(-c4ccccc4Cl)oc23)[C@H](O)C1 [Alvocidib] (10000 nM),20.1%,7.68%,13.9%,8.12%,15.7%,7.8%,1.32%,5.01%,5.51%,26.2%,37%,26.2%,58.3%,17%,21.7%,3.28%,7.83%,10%,18.1%,,,,,,,,,
Nc1nc(Cl)nc2c1ncn2[C@H]1C[C@H](O)[C@@H](CO)O1 [Cladribine] (100 nM),,,,,,,,,,,,,,,,,,,,90.1%,104%,111%,94.5%,100%,93.3%,107%,101%,106%
Nc1nc(Cl)nc2c1ncn2[C@H]1C[C@H](O)[C@@H](CO)O1 [Cladribine] (1000 nM),77.3%,102%,61.2%,92.9%,124%,75.5%,74.1%,87.9%,39.6%,89.2%,79%,82.8%,93.6%,92%,74.8%,88.4%,102%,109%,126%,,,,,,,,,
Nc1ccn([C@@H]2O[C@H](CO)[C@@H](O)[C@@H]2O)c(=O)n1 [Cytarabine] (1000 nM),,,,,,,,,,,,,,,,,,,,39.7%,94.5%,46.7%,88%,80.6%,86.8%,104%,101%,105%
Nc1ccn([C@@H]2O[C@H](CO)[C@@H](O)[C@@H]2O)c(=O)n1 [Cytarabine] (10000 nM),38.7%,77.9%,69.8%,69.6%,25.4%,69.3%,43%,62.9%,56.6%,77.4%,88.1%,76.5%,40.2%,55.9%,87.2%,79.6%,71.3%,106%,76.4%,,,,,,,,,
Cc1c2oc3c(C)ccc(C(=O)N[C@@H]4C(=O)N[C@H](C(C)C)C(=O)N5CCC[C@H]5C(=O)N(C)CC(=O)N(C)[C@@H](C(C)C)C(=O)O[C@@H]4C)c3nc-2c(C(=O)N[C@@H]2C(=O)N[C@H](C(C)C)C(=O)N3CCC[C@H]3C(=O)N(C)CC(=O)N(C)[C@@H](C(C)C)C(=O)O[C@@H]2C)c(N)c1=O [Dactinomycin] (100 nM),,,,,,,,,,,,,,,,,,,,2.69%,6.91%,11.3%,19.8%,8.6%,2.57%,5.33%,26.6%,6.8%
COc1cccc2c1C(=O)c1c(O)c3c(c(O)c1C2=O)C[C@@](O)(C(=O)CO)C[C@@H]3O[C@H]1C[C@H](N)[C@H](O)[C@H](C)O1 [Doxorubicin] (100 nM),,,,,,,,,,,,,,,,,,,,39%,103%,92.2%,98.6%,105%,95.9%,106%,115%,117%
Cc1ccc(F)c(NC(=O)Nc2ccc(-c3cccc4[nH]nc(N)c34)cc2)c1 [Linifanib] (100 nM),,,,,,,,,,,,,,,,,,,,75.2%,100%,112%,114%,105%,111%,105%,110%,112%
S=c1[nH]cnc2nc[nH]c12 [Mercaptopurine] (1000 nM),,,,,,,,,,,,,,,,,,,,108%,92.6%,95.2%,88.8%,95.3%,66.6%,94.2%,93.7%,98.6%
Clc1ccc(C(c2ccccc2Cl)C(Cl)Cl)cc1 (centres undefined) [Mitotane] (1000 nM),,,,,,,,,,,,,,,,,,,,98.3%,101%,94.2%,97.7%,94.1%,101%,91.7%,97.4%,92.5%
COc1cccc2cc(-c3nc([C@H]4CC[C@H](C(=O)O)CC4)n4ncnc(N)c34)[nH]c12 [OSI-027] (1000 nM),,,,,,,,,,,,,,,,,,,,92.4%,76.2%,48.2%,77.3%,90.8%,85.5%,87%,72.5%,71.2%
OC[C@H]1O[C@@H](n2cnc3c2N=CNC[C@H]3O)C[C@@H]1O [Pentostatin] (1000 nM),,,,,,,,,,,,,,,,,,,,92.4%,100%,104%,95.6%,104%,108%,105%,103%,97.8%
N#CC[C@H](C1CCCC1)n1cc(-c2ncnc3[nH]ccc23)cn1 [Ruxolitinib] (1000 nM),,,,,,,,,,,,,,,,,,,,121%,95.8%,90.2%,89.4%,92.9%,104%,80.6%,91%,84.3%
C=CC[C@@H]1/C=C(\C)C[C@H](C)C[C@H](OC)[C@H]2O[C@@](O)(C(=O)C(=O)N3CCCC[C@H]3C(=O)O[C@H](/C(C)=C/[C@@H]3CC[C@@H](O)[C@H](OC)C3)[C@H](C)[C@@H](O)CC1=O)[C@H](C)C[C@@H]2OC [Tacrolimus] (1000 nM),,,,,,,,,,,,,,,,,,,,109%,95.1%,88.5%,101%,98.4%,106%,102%,101%,108%
C=CCNC1=C2C[C@@H](C)C[C@H](OC)[C@H](O)[C@@H](C)/C=C(\C)[C@H](OC(N)=O)[C@@H](OC)/C=C\C=C(/C)C(=O)NC(=CC1=O)C2=O [Tanespimycin] (1000 nM),,,,,,,,,,,,,,,,,,,,26%,27.9%,38.5%,51.8%,36%,23.5%,14.6%,39.2%,28.9%
C[C@]1(c2nc3c(C(N)=O)cccc3[nH]2)CCCN1 [Veliparib] (1000 nM),,,,,,,,,,,,,,,,,,,,72.6%,115%,101%,97%,105%,103%,91.3%,107%,109%
CC[C@]1(O)C[C@@H]2CN(CCc3c([nH]c4ccccc34)[C@@](C(=O)OC)(c3cc4c(cc3OC)N(C)[C@H]3[C@@](O)(C(=O)OC)[C@H](OC(C)=O)[C@]5(CC)C=CCN6CC[C@]43[C@@H]65)C2)C1 [Vinblastine] (100 nM),,,,,,,,,,,,,,,,,,,,31.6%,37.2%,14.2%,62.9%,56.6%,40.1%,72.4%,44.1%,57.5%
CS(=O)(=O)c1ccc(C(=O)Nc2ccc(Cl)c(-c3ccccn3)c2)c(Cl)c1 [Vismodegib] (1000 nM),,,,,,,,,,,,,,,,,,,,105%,103%,86.5%,90.9%,89.2%,95.9%,94.9%,95.2%,89.6%
